Measured values as given in patent publication US4820695A, “C-20-dihydro-deoxy-(cyclic amino)-derivatives of macrolide antibiotics” (priority 1987, dated 1989).
Values after ≈ are worked out from the molar mass of the structure shown. Like-named read-outs stand apart in the source and are kept apart here.

Legend:
[1] = test system: Staphylococcus aureus X400; assay: MIC, standard agar-dilution assay (Table IX); format: cell-based; conditions: Staphylococcus aureus X400, Methicillin-resistant strain, read-out: MIC
[2] = test system: Staphylococcus aureus S13E; assay: MIC, standard agar-dilution assay (Table IX); format: cell-based; conditions: Staphylococcus aureus, S13E
[3] = test system: Streptococcus Group D 2041; assay: MIC, standard agar-dilution assay (Table IX); format: cell-based; conditions: GROUPD2041, read-out: MIC
[4] = test system: Haemophilus influenzae C.L.; assay: MIC, standard agar-dilution assay (Table IX); format: cell-based; conditions: Ampicillin-sensitive strain, read-out: MIC
[5] = test system: Staphylococcus epidermidis EPI1; assay: MIC, standard agar-dilution assay (Table IX); format: cell-based
Escherichia coli EC14 = assay: MIC, standard agar-dilution assay (Table IX); format: cell-based; conditions: read-out: MIC
[6] = test system: Streptococcus pneumoniae Park I; assay: MIC, standard agar-dilution assay (Table IX); format: cell-based
[7] = test system: Streptococcus pyogenes C203; assay: MIC, standard agar-dilution assay (Table IX); format: cell-based; conditions: read-out: MIC
[8] = test system: Staphylococcus epidermidis 222; assay: MIC, standard agar-dilution assay (Table IX); format: cell-based; conditions: read-out: MIC
[9] = test system: Streptococcus Group D X66; assay: MIC, standard agar-dilution assay (Table IX); format: cell-based; conditions: read-out: MIC
Staphyloccus aureus X1.1 = assay: MIC, standard agar-dilution assay (Table IX); format: cell-based, Staphylococcus aureus; conditions: Staphylococcus aureus, read-out: MIC
Pasteurella multocida [10] = assay: Pasteurella infection in one-day-old chicks, subcutaneous administration (Table XII); format: in vivo; conditions: Administered subcutaneously, 30 mg/kg × 2, 1 and 4 hours post-challenge
Protocol: (§1) Many of the C-20 modified derivatives of this invention have also shown in vivo antibacterial activity against infections induced by gram-negative bacteria. Tables XII and XIII summarize the results of tests in which illustrative compounds were evaluated against a Pasteurella infection in one-day-old chicks. The compounds were administered parenterally or orally after challenge of the chicks with Pasteurella multocida (0.1 ml of a 10^-4 dilution of a twenty-hour tryptose broth culture of an avian P. multocida given subcutaneously). In these tests, unless indicated otherwise, all non-medicated infected chicks died within 24 hours of Pasteurella challenge. In the tests summarized in Table XII, the compounds were administered by subcutaneous injection at a dosage of 30 mg/kg, 1 and 4 hours post-challenge of the chicks with P. multocida. In the tests summarized in Table XIII the compounds were administered in medicated drinking water (at a level of 2 g/gal) available from 4 to 20 hours prior to challenge of the chicks with P. multocida and during the 3 -day test period.
^a Administered subcutaneously; 30 mg/kg × 2

[11] = test system: Haemophilus influenzae 76; assay: MIC, standard agar-dilution assay (Table IX); format: cell-based; conditions: Haemophilus influenzae 76, Ampicillin-resistant strain, read-out: MIC
[12] = test system: Streptococcus pyogenes C203; assay: ED50 in mice experimentally infected with S. pyogenes C203 (Table XI); format: in vivo; conditions: Streptococcus pyogenes, doses given 1 and 4 hours postinfection, read-out: ED50
Method in brief: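 Protective ED50 (mg/kg × 2) was determined as the dose sparing half the animals. Test compound was given twice, at 1 and 4 hours after experimental S. pyogenes C203 infection of mice.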

[13] = test system: Staphylococcus aureus V41; assay: MIC, standard agar-dilution assay (Table IX); format: cell-based; conditions: Staphylococcus aureus V41, Penicillin-resistant strain, read-out: MIC
Klebsiella X26 = assay: MIC, standard agar-dilution assay (Table IX); format: cell-based; conditions: read-out: MIC
Mycoplasma synoviae 40A = assay: MIC, broth-dilution microtiter test (Table X); format: cell-based; conditions: Mycoplasmopsis synoviae, read-out: MIC
From the text: (§2) The MIC's in Table X were obtained using conventional broth-dilution microtiter tests.

Streptococcus sp. 19F = assay: MIC, broth-dilution microtiter test (Table X); format: cell-based; conditions: read-out: MIC
From the text: as §2

[14] = test system: Pasteurella multocida 60A; assay: MIC, broth-dilution microtiter test (Table X); format: cell-based; conditions: Avian isolate, read-out: MIC
From the text: as §2

[15] = test system: Pasteurella hemolytica 22C; assay: MIC, broth-dilution microtiter test (Table X); format: cell-based; conditions: read-out: MIC
From the text: as §2

Staphylococcus aureus = assay: MIC, broth-dilution microtiter test (Table X); format: cell-based; conditions: read-out: MIC
From the text: as §2

[16] = test system: Mycoplasma gallisepticum 29C; assay: MIC, broth-dilution microtiter test (Table X); format: cell-based; conditions: Mycoplasmoides gallisepticum, read-out: MIC
From the text: as §2

Mycoplasma hyorhinis 29E = assay: MIC, broth-dilution microtiter test (Table X); format: cell-based; conditions: read-out: MIC
From the text: as §2

[17] = test system: Pasteurella multocida 17E; assay: MIC, broth-dilution microtiter test (Table X); format: cell-based; conditions: Bovine isolate, read-out: MIC
From the text: as §2

[18] = test system: Mycoplasma hyopneumoniae S5972; assay: MIC, broth-dilution microtiter test (Table X); format: cell-based; conditions: Mesomycoplasma hyopneumoniae, read-out: MIC
From the text: as §2

Escherichia coli TEM = assay: MIC, standard agar-dilution assay (Table IX); format: cell-based; conditions: read-out: MIC
Pasteurella multocida [19] = assay: Pasteurella infection in one-day-old chicks, medicated drinking water (Table XIII); format: in vivo; conditions: Administered in the available drinking water at 2 g/gal
Protocol: as §1
^a Administered in the available drinking water at a concentration of […]

Escherichia coli N10 = assay: MIC, standard agar-dilution assay (Table IX); format: cell-based; conditions: read-out: MIC
[20] = Titratable groups in 66% aqueous DMF (Tables XIV-XVI); format: physicochemical
From the text: ^c Run in 66% aqueous DMF
^d Run in 66% aqueous DMF

[21] = Staphylococcus epidermidis EPI1, agar-dilution, read-out: MIC
[22] = Streptococcus pneumoniae Park I, agar-dilution, read-out: MIC
[23] = Titratable groups (first value)

Compound | MIC [1] [µg/mL] | MIC [2] [µg/mL] | MIC [3] [µg/mL] | MIC [4] [µg/mL] | MIC (Escherichia coli EC14) [µg/mL] | MIC [8] [µg/mL] | MIC [9] [µg/mL] | MIC (Staphyloccus aureus X1.1) [µg/mL] | Number of Deaths/Number Treated (Pasteurella multocida [10]) | MIC [11] [µg/mL] | ED50 ([12]; C203, Oral) [mg/kg] | ED50 ([12]; C203, sc, Subcutaneous) [mg/kg] | MIC [13] [µg/mL] | MIC (Klebsiella X26) [µg/mL] | MIC (Mycoplasma synoviae 40A) [µg/mL] | MIC (Streptococcus sp. 19F) [µg/mL] | MIC [14] [µg/mL] | MIC [15] [µg/mL] | MIC (Staphylococcus aureus) [µg/mL] | MIC [16] [µg/mL] | also measured
CCC1OC(=O)CC(O)C(C)C(OC2OC(C)C(O)C(N(C)C)C2O)C(CCN2CC=CCC2)CC(C)C(=O)C=CC(C)=CC1COC1OC(C)C(O)C(OC)C1OC (stereo not shown) [Compound D22, 20-DH-DO-20-(1,2,3,6-Tetrahydropyridin-1-yl)desmycosin] | 1 (≈ 1.19 µM) | 0.5 (≈ 0.596 µM) | 8 (≈ 9.53 µM) | 16 (≈ 19.1 µM) | > 128 | 0.25 (≈ 0.298 µM) | 8 (≈ 9.53 µM) | 1 (≈ 1.19 µM) | 0/10 | 8 (≈ 9.53 µM) | 40 | 0.8 | 0.5 (≈ 0.596 µM) | 64 (≈ 76.3 µM) | 0.78 (≈ 0.93 µM) | 3.12 (≈ 3.72 µM) | 12.5 (≈ 14.9 µM) | 3.12 (≈ 3.72 µM) | 1.56 (≈ 1.86 µM) | 0.78 (≈ 0.93 µM) | MIC [5, 21]: 0.5 µg/mL (≈ 0.596 µM); MIC [6, 22]: 1 µg/mL (≈ 1.19 µM); MIC [7]: 0.25 µg/mL (≈ 0.298 µM); MIC (Mycoplasma hyorhinis 29E): 25 µg/mL (≈ 29.8 µM); MIC [17]: 12.5 µg/mL (≈ 14.9 µM); MIC [18]: 1.56 µg/mL (≈ 1.86 µM); MIC (Escherichia coli TEM): 64 µg/mL (≈ 76.3 µM); Number of Deaths/Number Treated (Pasteurella multocida [19]): 5/10; MIC (Escherichia coli N10): > 128 µg/mL
CCC1OC(=O)CC(O)C(C)C(OC2OC(C)C(O)C(N(C)C)C2O)C(CCN2CC3(C)CC2CC(C)(C)C3)CC(C)C(=O)C=CC(C)=CC1COC1OC(C)C(O)C(OC)C1OC (stereo not shown) [Compound D21, 20-DH-DO-20-[1,3,3-trimethyl-6-azabicyclo[3.2.1]octan-6-yl]desmycosin] | 1 (≈ 1.1 µM) | 1 (≈ 1.1 µM) | 8 (≈ 8.8 µM) | 32 (≈ 35.2 µM) | 64 (≈ 70.4 µM) | 0.5 (≈ 0.55 µM) | 4 (≈ 4.4 µM) | 1 (≈ 1.1 µM) | 7/10 | 16 (≈ 17.6 µM) | 10 | 1 | 1 (≈ 1.1 µM) | 64 (≈ 70.4 µM) | 0.39 (≈ 0.429 µM) | 1.56 (≈ 1.72 µM) | 3.12 (≈ 3.43 µM) | 3.12 (≈ 3.43 µM) | 0.78 (≈ 0.858 µM) | 1.56 (≈ 1.72 µM) | MIC [5, 21]: 1 µg/mL (≈ 1.1 µM); MIC [6, 22]: 0.5 µg/mL (≈ 0.55 µM); MIC [7]: 0.5 µg/mL (≈ 0.55 µM); MIC [17]: 3.12 µg/mL (≈ 3.43 µM); MIC [18]: 0.195 µg/mL (≈ 0.214 µM); MIC (Escherichia coli TEM): 32 µg/mL (≈ 35.2 µM); Number of Deaths/Number Treated (Pasteurella multocida [19]): 3/10; MIC (Escherichia coli N10): 64 µg/mL (≈ 70.4 µM); pKa ([20]; Titratable groups): 9.7; pKa [20, 23]: 8
CCC1OC(=O)CC(O)C(C)C(OC2OC(C)C(O)C(N(C)C)C2O)C(CCN2CC3CCC(CC3)C2)CC(C)C(=O)C=CC(C)=CC1COC1OC(C)C(O)C(OC)C1OC (stereo not shown) [Compound D14, 20-DH-DO-20-[3-azabicyclo[3.2.2]nonan-3-yl]desmycosin] | 0.5 (≈ 0.567 µM) | 0.25 (≈ 0.284 µM) | 4 (≈ 4.54 µM) | 4 (≈ 4.54 µM) | 32 (≈ 36.3 µM) | 0.12 (≈ 0.136 µM) | 4 (≈ 4.54 µM) | 0.25 (≈ 0.284 µM) | 2/10 | 8 (≈ 9.08 µM) | 50 | 1 | 0.25 (≈ 0.284 µM) | 8 (≈ 9.08 µM) | 0.39 (≈ 0.443 µM) | 1.56 (≈ 1.77 µM) | 3.12 (≈ 3.54 µM) | 1.56 (≈ 1.77 µM) | 0.78 (≈ 0.885 µM) | 1.56 (≈ 1.77 µM) | MIC ([5]; Staphylococcus epidermidis, EPI1): 0.5 µg/mL (≈ 0.567 µM); MIC ([6]; Streptococcus pneumoniae): 0.5 µg/mL (≈ 0.567 µM); MIC (Mycoplasma hyorhinis 29E): 50 µg/mL (≈ 56.7 µM); MIC [17]: 3.12 µg/mL (≈ 3.54 µM); MIC [18]: 0.78 µg/mL (≈ 0.885 µM); MIC (Escherichia coli TEM): 16 µg/mL (≈ 18.2 µM); Number of Deaths/Number Treated (Pasteurella multocida [19]): 0/10; MIC (Escherichia coli N10): 32 µg/mL (≈ 36.3 µM); pKa ([20]; Titratable groups): 9.2; pKa [20, 23]: 7.9
CCC1OC(=O)CC(O)C(C)C(OC2OC(C)C(O)C(N(C)C)C2O)C(CCN2CCCc3ccccc32)CC(C)C(=O)C=CC(C)=CC1COC1OC(C)C(O)C(OC)C1OC (stereo not shown) [Compound D11, 20-DH-DO-20-(1,2,3,4-Tetrahydroquinolin-1-yl)desmycosin] | 0.5 (≈ 0.562 µM) | 0.5 (≈ 0.562 µM) | 8 (≈ 9 µM) | 64 (≈ 72 µM) | > 128 | 0.25 (≈ 0.281 µM) | 8 (≈ 9 µM) | 0.5 (≈ 0.562 µM) | 10/10 | 8 (≈ 9 µM) | 19 | 7.5 | 0.5 (≈ 0.562 µM) | > 128 | 0.78 (≈ 0.877 µM) | 3.12 (≈ 3.51 µM) | 50 (≈ 56.2 µM) | 25 (≈ 28.1 µM) | 1.56 (≈ 1.75 µM) | ≤ 0.048 | MIC [5, 21]: 0.5 µg/mL (≈ 0.562 µM); MIC [6, 22]: 2 µg/mL (≈ 2.25 µM); MIC [7]: 0.5 µg/mL (≈ 0.562 µM); MIC (Mycoplasma hyorhinis 29E): 6.25 µg/mL (≈ 7.03 µM); MIC [17]: 12.5 µg/mL (≈ 14.1 µM); MIC [18]: 1.56 µg/mL (≈ 1.75 µM); MIC (Escherichia coli TEM): > 128 µg/mL; Number of Deaths/Number Treated (Pasteurella multocida [19]): 8/10; MIC (Escherichia coli N10): > 128 µg/mL
